From ChEMBL document CHEMBL2396653, “Synthesis and antimycobacterial evaluation of N-substituted 5-chloropyrazine-2-carboxamides” (Bioorg Med Chem Lett, 2013)
Converted amounts (≈) assume the structure as drawn.

Legend:
[1] = tested on: Mycobacterium tuberculosis variant bovis; assay: Antimycobacterial activity against pyrazinamide-resistant Mycobacterium bovis ATCC 35720 assessed as growth inhibition after 24 hrs to 2 weeks by microbroth dilution method; assay type: functional
[2] = tested on: Mycobacterium tuberculosis variant bovis; assay: Antimycobacterial activity against pyrazinamide-resistant Mycobacterium bovis ATCC 27289 assessed as growth inhibition after 24 hrs to 2 weeks by microbroth dilution method; assay type: functional

## NC(=O)c1cnc(Cl)cn1
[1]
  MIC: 8 µg/mL (≈ 50.8 µM)
[2]
  MIC: 8 µg/mL (≈ 50.8 µM)
